# Assay results from patent US20060046976A1, “Method for increasing the bone mineral density and bone micro-architecture or connectivity of a mammal using N-acylated glucosamines” (priority 2004, published 2006).
# Tested on: SCW-arthritis rats
# Assay: Two-dimensional subchondral bone analysis (structure, connectivity/strut analysis, plate thickness) of proximal tibia, SCW-arthritis rats
# Assay type: in vivo, Lewis type rats
# Conditions: for 2D-Tb.N Mean ± SEM / 2D-Tb.Th % loss / 2D-Tb.Th Mean ± SEM / End Points % loss / End Points Mean ± SEM / Multiple points % loss / Multiple points Mean ± SEM / Node-node struts % loss / Node-node struts Mean ± SEM / Total Strut length % loss / Total Strut length Mean ± SEM / 2D-BV/TV % loss / 2D-BV/TV Mean ± SEM / 2D-Tb.N % loss: SCW + 200 mg
smiles,measurement,setting,value
"CCCC(=O)N[C@H]1C(O)O[C@H](CO)[C@@H](O)[C@@H]1O (stereo partly drawn) [GlcNBu, N-butyryl-D-glucosamine]",2D-Tb.N Mean ± SEM,Anterior/lateral,6.0 ± 0.7 /mm
same,2D-Tb.Th % loss,Anterior/lateral,30%
same,2D-Tb.Th Mean ± SEM,Anterior/lateral,39.7 ± 2.9 um
same,End Points % loss,Anterior/lateral,−120%
same,End Points Mean ± SEM,Anterior/lateral,34.1 ± 4.1 1/mm2
same,Multiple points % loss,Anterior/lateral,37%
same,Multiple points Mean ± SEM,Anterior/lateral,10.3 ± 2.7 1/mm2
same,Node-node struts % loss,Anterior/lateral,64%
same,Node-node struts Mean ± SEM,Anterior/lateral,1.2 ± 0.4 mm/mm2
same,Total Strut length % loss,Anterior/lateral,28%
same,Total Strut length Mean ± SEM,Anterior/lateral,5.4 ± 0.7 mm/mm2
same,2D-BV/TV % loss,Anterior/medial,31%
same,2D-BV/TV Mean ± SEM,Anterior/medial,27.8 ± 2.7%
same,2D-Tb.N % loss,Anterior/medial,10%
same,2D-Tb.N Mean ± SEM,Anterior/medial,5.7 ± 0.6 /mm
same,2D-Tb.Th % loss,Anterior/medial,28%
same,2D-Tb.Th Mean ± SEM,Anterior/medial,49.5 ± 4.3 um
same,End Points % loss,Anterior/medial,−99%
same,End Points Mean ± SEM,Anterior/medial,26.7 ± 5.7 1/mm2
same,Multiple points % loss,Anterior/medial,32%
same,Multiple points Mean ± SEM,Anterior/medial,10.7 ± 1.7 1/mm2
same,Node-node struts % loss,Anterior/medial,45%
same,Node-node struts Mean ± SEM,Anterior/medial,1.3 ± 0.3 mm/mm2
same,Total Strut length % loss,Anterior/medial,15%
same,Total Strut length Mean ± SEM,Anterior/medial,5.1 ± 0.5 mm/mm2
same,2D-BV/TV % loss,Middle section/lateral,15%
same,2D-BV/TV Mean ± SEM,Middle section/lateral,24.1 ± 2.1%
same,2D-Tb.N % loss,Middle section/lateral,0%
same,2D-Tb.N Mean ± SEM,Middle section/lateral,4.7 ± 0.3 /mm
same,2D-Tb.Th % loss,Middle section/lateral,16%
same,2D-Tb.Th Mean ± SEM,Middle section/lateral,51.3 ± 2.8 um
same,End Points % loss,Middle section/lateral,−92%
same,End Points Mean ± SEM,Middle section/lateral,19.8 ± 1.7 1/mm2
same,Multiple points % loss,Middle section/lateral,2%
same,Multiple points Mean ± SEM,Middle section/lateral,9.5 ± 1.9 1/mm2
same,Node-node struts % loss,Middle section/lateral,15%
same,Node-node struts Mean ± SEM,Middle section/lateral,0.9 ± 0.2 mm/mm2
same,Total Strut length % loss,Middle section/lateral,9%
same,Total Strut length Mean ± SEM,Middle section/lateral,4.2 ± 0.2 mm/mm2
same,2D-BV/TV % loss,Middle section/medial,17%
same,2D-BV/TV Mean ± SEM,Middle section/medial,35.1 ± 4.1%
same,2D-Tb.N % loss,Middle section/medial,−9%
same,2D-Tb.N Mean ± SEM,Middle section/medial,5.1 ± 0.2 /mm
same,2D-Tb.Th % loss,Middle section/medial,24%
same,2D-Tb.Th Mean ± SEM,Middle section/medial,68.5 ± 6.3 um
same,End Points % loss,Middle section/medial,−145%
same,End Points Mean ± SEM,Middle section/medial,12.2 ± 2.1 1/mm2
same,Multiple points % loss,Middle section/medial,−11%
same,Multiple points Mean ± SEM,Middle section/medial,12.6 ± 1.8 1/mm2
same,Node-node struts % loss,Middle section/medial,4%
same,Node-node struts Mean ± SEM,Middle section/medial,2.0 ± 0.3 mm/mm2
same,Total Strut length % loss,Middle section/medial,−2%
same,Total Strut length Mean ± SEM,Middle section/medial,4.9 ± 0.3 mm/mm2
same,2D-BV/TV % loss,Posterior/lateral,27%
same,2D-BV/TV Mean ± SEM,Posterior/lateral,23.2 ± 1.0%
same,2D-Tb.N % loss,Posterior/lateral,13%
same,2D-Tb.N Mean ± SEM,Posterior/lateral,4.5 ± 0.2 /mm
same,2D-Tb.Th % loss,Posterior/lateral,22%
same,2D-Tb.Th Mean ± SEM,Posterior/lateral,49.8 ± 1.7 um
same,End Points % loss,Posterior/lateral,−114%
same,End Points Mean ± SEM,Posterior/lateral,21.4 ± 1.7 1/mm2
same,Multiple points % loss,Posterior/lateral,59%
same,Multiple points Mean ± SEM,Posterior/lateral,7.1 ± 0.7 1/mm2
same,Node-node struts % loss,Posterior/lateral,46%
same,Node-node struts Mean ± SEM,Posterior/lateral,0.7 ± 0.1 mm/mm2
same,Total Strut length % loss,Posterior/lateral,16%
same,Total Strut length Mean ± SEM,Posterior/lateral,4.0 ± 0.2 mm/mm2
same,2D-BV/TV % loss,Posterior/medial,21%
same,2D-BV/TV Mean ± SEM,Posterior/medial,35.9 ± 2.2%
same,2D-Tb.N % loss,Posterior/medial,5%
same,2D-Tb.N Mean ± SEM,Posterior/medial,6.1 ± 0.2 /mm
same,2D-Tb.Th % loss,Posterior/medial,21%
same,2D-Tb.Th Mean ± SEM,Posterior/medial,61.0 ± 3.6 um
same,End Points % loss,Posterior/medial,−233%
same,End Points Mean ± SEM,Posterior/medial,17.1 ± 1.8 1/mm2
same,Multiple points % loss,Posterior/medial,29%
same,Multiple points Mean ± SEM,Posterior/medial,13.9 ± 1.8 1/mm2
same,Node-node struts % loss,Posterior/medial,23%
same,Node-node struts Mean ± SEM,Posterior/medial,2.1 ± 0.3 mm/mm2
same,Total Strut length % loss,Posterior/medial,12%
same,Total Strut length Mean ± SEM,Posterior/medial,5.6 ± 0.3 mm/mm2
same,Subchondral Plate Thickness,"SCW + GlcNBu High, lateral epiphysis of proximal tibia",0.11 ± 0.04 mm
same,Subchondral Plate Thickness,"SCW + GlcNBu High, medial epiphysis of proximal tibia",0.07 ± 0.04 mm
same,Subchondral Plate Thickness,"SCW + GlcNBu Low, lateral epiphysis of proximal tibia",0.10 ± 0.04 mm
same,Subchondral Plate Thickness,"SCW + GlcNBu Low, medial epiphysis of proximal tibia",0.07 ± 0.03 mm
same,decrease of Subchondral Plate Thickness in arthritis,"SCW-arthritis rats, GlcNBu treatment, especially high dose",minimized by GlcNBu treatment
same,bone connectivity,"SCW-arthritis rats, low and high dose GlcNBu",dose-dependent increase in bone connectivity
same,"length of node-to-node struts, untreated arthritis-induced group to high dose group","medial side of the proximal epiphysis, high dose, p=0.034",significant increase
